SMILES strings stand for the structures.

These results are taken from US20260070902A1, “SULFONYL DERIVATIVES AS CCR6 INHIBITORS” (Hoffmann-La Roche Inc., priority 2022, published 2026).

The test system of one experiment is Human CD4+ T cells. Description: CD4+ T cells chemotaxis assay towards CCL20. The class given is cell-based. To be noted: 3 h; for CD4+ T-cell chemotaxis: relative -Log IC50, human CD4+ T cells stimulated with anti-CD3 and anti-CD28, migration towards 150 ng/ml CCL20; for IC50: Homo sapiens, CD4+ T cell, relative -Log IC50, human CD4+ T cells stimulated with anti-CD3 and anti-CD28, migration towards 150 ng/ml CCL20. The text has this:
CD4+ T Cells Chemotaxis Assay Towards CCL20
Human CD4+ T cells were isolated from buffy coats of healthy donors using a CD4+ T Cell Isolation Kit (Miltenyi Biotec130-096-533). Isolated T cells were stimulated overnight with anti-CD3 and anti-CD28 antibodies (Biolegend 300314/302934) in growth medium (RPMI1640, 10% heat-inactivated FBS, 1× pen/strep (Gibco 15140)). For the chemotaxis assay, Corning Transwell plates were used with a pore size of 5 m (Corning 3388). T cells were counted and diluted to 6*10^6 cells/ml in chemotaxis medium (RPMI1640, 1% BSA, pen/strep). Compounds were four-fold serially diluted in DMSO. Further dilutions were made in chemotaxis medium. Cells were incubated with test compounds for 30 min at 37° C. prior to initiation of the assay (3*10^6 cells/ml). Final DMSO concentration in the assay was 0.2%. Wells of the Transwell plates were filled with 200 μl chemotaxis medium containing 150 ng/ml CCL20 (R&D systems 360-MP). 50 μl of the cell/compound suspension was added to the inserts of the Transwell plates (150,000 cells/insert). The Transwell plates were placed in an incubator at 37° C., 5% CO2 for 3 h. After 3 h, the number of migrated cells was quantified using CellTiter Glo (Promega). Percentage inhibition values were calculated based on the low and high signal obtained with 0.2% DMSO in chemotaxis medium without and with CCL20, respectively. The relative −Log IC50 was determined with GraphPad Prism 9 using a four-parameter dose-response model.

The target of the next experiment is T1, human CCR6 (Homo sapiens, UniProt P51684).
T1 sequence (P51684 1-374): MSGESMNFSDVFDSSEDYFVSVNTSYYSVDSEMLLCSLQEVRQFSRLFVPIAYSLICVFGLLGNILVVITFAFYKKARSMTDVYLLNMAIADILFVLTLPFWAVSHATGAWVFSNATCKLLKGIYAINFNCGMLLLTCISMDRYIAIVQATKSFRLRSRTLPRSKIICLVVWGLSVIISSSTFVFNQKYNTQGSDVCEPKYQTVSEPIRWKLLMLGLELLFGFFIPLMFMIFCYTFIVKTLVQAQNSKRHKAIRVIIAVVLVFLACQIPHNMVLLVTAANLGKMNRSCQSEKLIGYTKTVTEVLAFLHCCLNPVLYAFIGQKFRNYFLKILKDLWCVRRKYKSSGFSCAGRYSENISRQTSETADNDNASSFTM
Description: Human CCR6-CRE reporter assay. The format is cell-based. More on the design: The second construct contained the open reading frame of human CCR6 in the pUNO1 backbone; host or cells: 293FT cells. Conditions: relative -Log IC50; 293FT cells transfected with human CCR6 and CRE-luciferase reporter; 6 μM Forskolin, 6 nM CCL20; 5 h. The procedure, abridged:
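293FT cells transiently co-transfected with human CCR6 and a CRE-luc2P reporter, used 48 h later. Compounds incubated with cells in medium containing 6 μM Forskolin and 6 nM CCL20 (assay-medium levels), 0.1% DMSO final, 5 h at 37° C; luminescence read, relative −Log IC50 from four-parameter fit.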
Background: Reporter assays use an easily measured gene product as a stand-in for the process of interest.

The term IC50 denotes the concentration at which inhibition is half-maximal. A low value points to greater potency. Regarding `CC(C)c1nnc2ccc(-c3ccc(S(=N)(=O)[C@H]4CC[C@H](Nc5ccc(S(F)(F)(F)(F)F)cc5)CC4)cc3)cn12` (single isomer, unassigned; (-)) [Example 164, (−)-{4-[3-(propan-2-yl)-[1,2,4]triazolo[4,3-a]pyridin-6-yl]phenyl}[trans-4-{[4-(pentafluoro-λ^6-sulfanyl)phenyl]amino}cyclohexyl](imino)-λ^6-sulfanone], the “CD4+ T-cell chemotaxis” value in the experiment on Human CD4+ T cells amounted to 6.7. In addition, the half-inhibitory concentration (IC50) at human CCR6 is 126 nM.
With `N#Cc1n[nH]c2ccc(-c3ccc(S(=O)(=O)[C@H]4CC[C@H](Nc5ccc(S(F)(F)(F)(F)F)cc5)CC4)cc3)cc12` [Example 38, 5-(4-{[trans-4-{[4-(pentafluoro-λ^6-sulfanyl)phenyl]Amino}cyclohexyl]sulfonyl}phenyl)-1H-indazole-3-carbonitrile], the IC50 with Human CD4+ T cells is 0.631 nM; at human CCR6, 39.8 nM.
In the case of `O=S(=O)(c1ccc(N2CCC3(CC2)COC3)cc1)N1CCC(Nc2ccc(S(F)(F)(F)(F)F)cc2)CC1` [Example 136, 1-(4-{2-oxa-7-azaspiro[3.5]nonan-7-yl}benzenesulfonyl)-N-[4-(pentafluoro-λ^6-sulfanyl)phenyl]piperidin-4-amine], the IC50 in the experiment with Human CD4+ T cells was 200 nM; on human CCR6, 126 nM.
For `O=S(=O)(c1ccc(-c2cc(C(F)(F)F)c3nccn3c2)cc1)[C@H]1CC[C@H](Nc2ccc(S(F)(F)(F)(F)F)cc2)CC1` [Example 151, 4-(pentafluoro-λ^6-sulfanyl)-N-[trans-4-{4-[8-(trifluoromethyl)imidazo[1,2-a]pyridin-6-yl]benzenesulfonyl}cyclohexyl]aniline], in that order: 6.31 nM and 63.1 nM.
Take `NC(=O)c1cc(-c2ccc(S(=O)(=O)[C@H]3CC[C@H](Nc4ccc(S(F)(F)(F)(F)F)cc4)CC3)cc2)cs1` [Example 148, 4-(4-{[trans-4-{[4-(pentafluoro-λ^6-sulfanyl)phenyl]amino}cyclohexyl]sulfonyl}phenyl)thiophene-2-carboxamide]: the IC50 in the experiment with Human CD4+ T cells was 5.01 nM; against human CCR6, 50.1 nM.
As to `N=S(=O)(c1ccc(-c2ccnc(C(N)=O)c2)cc1)[C@H]1CC[C@H](Nc2ccc(S(F)(F)(F)(F)F)cc2)CC1` (single isomer, unassigned; (+)) [Example 130, (+)-4-(4-{[trans-4-{[4-(pentafluoro-λ^6-sulfanyl)phenyl]Amino}cyclohexyl]sulfonimidoyl}phenyl)pyridine-2-carboxamide], the “CD4+ T-cell chemotaxis” value with Human CD4+ T cells was 7.3. On human CCR6, this compound gave an IC50 of 200 nM.
`N#Cc1cnc2ccc(-c3ccc(S(=O)(=O)N4CCC(Nc5cccc(S(F)(F)(F)(F)F)c5)CC4)cc3)cn12` [Example 81, 6-{4-[(4-{[3-(pentafluoro-λ^6-sulfanyl)phenyl]Amino}piperidin-1-yl)sulfonyl]phenyl}imidazo[1,2-a]pyridine-3-carbonitrile]: the IC50 with Human CD4+ T cells was 158 nM; against human CCR6, 126 nM.
The corresponding values for `CC(C)c1nnc2cnc(-c3ccc(S(=O)(=O)N4CCC(Nc5ccc(S(F)(F)(F)(F)F)cc5)CC4)cc3)cn12` [Example 140, N-[4-(pentafluoro-λ^6-sulfanyl)phenyl]-1-{4-[3-(propan-2-yl)-[1,2,4]triazolo[4,3-a]pyrazin-6-yl]benzenesulfonyl}piperidin-4-amine] are 2.51 nM and 63.1 nM.
Consider `Cc1nc2ccc(-c3ccc(S(=O)(=O)[C@H]4CC[C@H](Nc5ccc(S(F)(F)(F)(F)F)cc5)CC4)cc3)cn2n1` [Example 40, 4-(pentafluoro-λ^6-sulfanyl)-N-[trans-4-(4-{2-methyl-[1,2,4]triazolo[1,5-a]pyridin-6-yl}benzenesulfonyl)cyclohexyl]aniline], for which the values for the 50% inhibitory concentration (IC50) with Human CD4+ T cells and against human CCR6 were 10 nM and 100 nM, respectively.
For `O=S(=O)(c1ccc(-c2ccc(O)nc2)cc1)[C@H]1CC[C@H](Nc2ccc(S(F)(F)(F)(F)F)cc2)CC1` [Example 56, 5-(4-{[trans-4-{[4-(pentafluoro-λ^6-sulfanyl)phenyl]Amino}cyclohexyl]sulfonyl}phenyl)pyridin-2-ol], in that order: 15.8 nM and 63.1 nM.
The corresponding values for `N#Cc1cnc2ccc(-c3ccc(S(=O)(=O)N4CCC(Nc5ccc(S(F)(F)(F)(F)F)cc5)CC4)cc3)cn12` [Example 25, 6-{4-[(4-{[4-(pentafluoro-λ^6-sulfanyl)phenyl]Amino}piperidin-1-yl)sulfonyl]phenyl}imidazo[1,2-a]pyridine-3-carbonitrile] are 5.01 nM and 39.8 nM.
For `N#Cc1c[nH]c2ccc(-c3ccc(S(=O)(=O)[C@H]4CC[C@H](Nc5ccc(S(F)(F)(F)(F)F)cc5)CC4)cc3)cc12` [Example 7, 5-(4-{[trans-4-{[4-(pentafluoro-λ^6-sulfanyl)phenyl]Amino}cyclohexyl]sulfonyl}phenyl)-1H-indole-3-carbonitrile], the IC50 is 0.501 nM with Human CD4+ T cells and 39.8 nM on human CCR6.
In the case of `Cc1n[nH]c2ncc(-c3ccc(S(=O)(=O)[C@H]4CC[C@H](Nc5ccc(S(F)(F)(F)(F)F)cc5)CC4)cc3)cc12` [Example 150, 4-(pentafluoro-λ^6-sulfanyl)-N-[trans-4-(4-{3-methyl-1H-pyrazolo[3,4-b]pyridin-5-yl}benzenesulfonyl)cyclohexyl]aniline], the IC50 with Human CD4+ T cells was 1 nM; against human CCR6, 63.1 nM.
The corresponding values for `O=S(=O)(c1ccc(-c2ccc3nccn3c2)cc1)N1CCC(Nc2cccc(S(F)(F)(F)(F)F)c2)CC1` [Example 82, 1-(4-{imidazo[1,2-a]pyridin-6-yl}benzenesulfonyl)-N-[3-(pentafluoro-λ^6-sulfanyl)phenyl]piperidin-4-amine] are 316 nM and 200 nM.
In the case of `O=c1[nH]ccn2cc(-c3ccc(S(=O)(=O)[C@H]4CC[C@H](Nc5ccc(S(F)(F)(F)(F)F)cc5)CC4)cc3)cc12` [Example 154, 7-(4-{[trans-4-{[4-(pentafluoro-λ^6-sulfanyl)phenyl]amino}cyclohexyl]sulfonyl}phenyl)-1H,2H-pyrrolo[1,2-a]pyrazin-1-one], the IC50 with Human CD4+ T cells is 7.94 nM; at human CCR6, 126 nM.
On to `COC1CC2(CCN(c3ccc(S(=O)(=O)N4CCC(Nc5ccc(S(F)(F)(F)(F)F)cc5)CC4)cc3)CC2)C1` [Example 132, 1-(4-{2-methoxy-7-azaspiro[3.5]nonan-7-yl}benzenesulfonyl)-N-[4-(pentafluoro-λ^6-sulfanyl)phenyl]piperidin-4-amine], for which the IC50 with Human CD4+ T cells is 20 nM; against human CCR6, 79.4 nM.
As to `O=C1NCCC12CCN(c1ccc(S(=O)(=O)N3CCC(Nc4ccc(S(F)(F)(F)(F)F)cc4)CC3)cc1)CC2` [Example 134, 8-{4-[(4-{[4-(pentafluoro-λ^6-sulfanyl)phenyl]amino}piperidin-1-yl)sulfonyl]phenyl}-2,8-diazaspiro[4.5]decan-1-one], the figures for the IC50 in the experiment with Human CD4+ T cells and against human CCR6 were 10 nM and 158 nM, respectively.
The corresponding values for `O=S(=O)(c1ccc(N2CC3CCC(C2)O3)cc1)N1CCC(Nc2ccc(S(F)(F)(F)(F)F)cc2)CC1` [Example 137, 1-(4-{8-oxa-3-azabicyclo[3.2.1]octan-3-yl}benzenesulfonyl)-N-[4-(pentafluoro-λ^6-sulfanyl)phenyl]piperidin-4-amine] are 126 nM and 200 nM.
